Laboratory results from patent US20240336565A1, “SOLID FORMS OF OSANETANT” (Acer Therapeutics, Inc., priority 2021, published 2024).

What was measured:
Format in all cases: physicochemical
[1] = Hygroscopicity / dynamic vapor sorption (DVS)
Description: The osanetant p-toluenesulfonic acid Form 1 solids consisted of aggregated crystals with an undefined morphology. Select peaks which can be used to characterize osanetant p-toluenesulfonic acid Form 1 include one or more of 11.4°2θ±0.2°2θ, 18.0°2θ±0.2°2θ, 19.0°2θ±0.2°2θ, 19.3°2θ±0.2°2θ, 19.8°2θ±0.2°2θ, or 21.1°2θ±0.2°2θ. In some embodiments, osanetant p-toluenesulfonic acid Form 1 is a monohydrate.

[2] = Long term stability: base (2M NaOH) at 60° C.; conditions: 2M NaOH, 60° C., up to 14 days
Description: (§1) Osanetant p-toluenesulfonic acid Form 1 and osanetant benzenesulfonic acid Form 1 were tested for long-term stability across a number of different conditions, as detailed below.
(§2) Base at 60° C.—Osanetant p-toluenesulfonic acid Form 1 and osanetant benzenesulfonic acid Form 1 were prepared at an osanetant content 10 times the normal working concentration then added to HPLC vials containing 2M NaOH and stored in a darkened oven at 60° C. Samples were diluted to 2 mg/mL for analysis and were taken after T=1, 2, 4, 7, and 14 days storage. […] The purity of the resulting material is described in Table 45: […]

[3] = Long term stability: oxidation (6% H2O2) at ambient temperature; conditions: 6% H2O2, dark, ambient, up to 14 days
Description: as §1
as §2, with “Oxidation” for “Base”, “Ambient Temperature-Osanetant” for “60° C.—Osanetant”, “6% H2O2” for “2M NaOH”, “the dark” for “a darkened oven”, “ambient laboratory conditions.” for “60° C.”, “46:” for “45:”

## CC(=O)N(C)C1(c2ccccc2)CCN(CCC[C@]2(c3ccc(Cl)c(Cl)c3)CCCN(C(=O)c3ccccc3)C2)CC1.Cc1ccc(S(=O)(=O)O)cc1 [osanetant p-toluenesulfonic acid Form 1, (R)-N-(1-(3-(1-benzoyl-3-(3,4-dichlorophenyl)piperidin-3-yl)propyl)-4-phenylpiperidin-4-yl)-N-methylacetamide p-toluenesulfonic acid]
[1]
  hygroscopicity / water loss on DVS analysis: did not lose the water
[1]; at 80% RH
  weight gain (hygroscopicity): 0.2 wt. %
[2]
  degradation on storage (purity): lack of degradation
[3]
  degradation on storage (purity): lack of degradation
